In US20040209897A1 (Pharmacia Corporation, priority 2002, published 2004):

Columns and labels:
SCW-induced arthritis = assay: Streptococcus cell wall (SCW)-induced arthritis, paw volume / paw swelling; type: in vivo; conditions: rats, FIG. 4, A at 20, 60, 200 mpk/day, B at 60, 120, 240 mpk/day
[1] = system: streptococcal cell wall (SCW)-induced arthritis; assay: Chronic streptococcal cell wall (SCW)-induced arthritis in Lewis rats, paw volume; type: in vivo; conditions: female Lewis rats, daily dosing from day 10, paw volume measured 11 days after start of administration, A at 200, 60, 20 mpk/day, B at 240, 120, 60 mpk/day, FIG. 3
Excerpt: The use of Lewis rats with chronic streptococcal cell wall (SCW)-induced arthritis as models for testing potentially therapeutic compounds has been described by Richards, P. J., et al., Rhermatology (Oxford), 40(9):978-987 (2001), and Melay, L. M. et al, Bioorg. Med. Chem., 9(2):537-554 (2001), among others. In the present test, female Lewis rats were divided into eight groups. One group served as the “normal” control and received no arthritis inducement. Chronic streptococcal cell wall (SCW)-induced arthritis was induced in the remaining seven groups. One of the severn groups in which arthritis was induced served as a “vehicle” control and received dosage only of vehicle at the same intervals as those rats receiving the test compounds. Three additional groups of rats received the vehicle plus 2-{2-[(E)-2-phenylethenyl]pyridin-4-yl}-1,5,6,7-tetrahydro-4H-pyrrolo[3,2-c]pyridin-4-one (Compound “A”) in daily dosages. All rats were started on the test at day 0. […]
To measure the effectiveness of the compounds for the treatment of SCW-induced arthritis, rat paw volume was measured at eleven (11) days from the initiation of administration of the test compounds. […]

MK-2 = conditions: cited from earlier work
endotoxin-induced shock = conditions: murine model of endotoxin-induced shock; cited from earlier work
[2] = system: collagen-induced arthritis; conditions: mouse; cited from earlier work
adjuvant arthritis = conditions: rat; cited from earlier work
granulomas = conditions: laboratory rats; cited from earlier work

O=C1NCCc2[nH]c(-c3ccnc(/C=C/c4ccccc4)c3)cc21 [Compound A, 2-{2-[(E)-2-phenylethenyl]pyridin-4-yl}-1,5,6,7-tetrahydro-4H-pyrrolo[3,2-c]pyridin-4-one]
percent inhibition in paw swelling as a function of the dosage rate (SCW-induced arthritis): typical dose-response behavior | average paw volume (increase versus vehicle controls) [1]: significantly lower increases in paw volume

C[S+]([O-])c1ccc(-c2nc(-c3ccncc3)c(-c3ccc(F)cc3)[nH]2)cc1 (stereo not shown) [SB203580]
inhibition of activation of MK-2 (MK-2): inhibit activation | mortality (endotoxin-induced shock): reduce mortality | development of collagen-induced arthritis [2]: inhibit the development | development of adjuvant arthritis (adjuvant arthritis): inhibit the development

Nc1nccc(-c2c(-c3ccc(F)cc3)ncn2C2CCNCC2)n1 [SB 220025]
vascular density of granulomas (granulomas): significant dose-dependent decrease
